Measurements reported in patent publication US10238641B2, “Materials and methods for diagnosis, prevention and/or treatment of stress disorders and conditions associated with A-beta peptide aggregation” (The United States of America as represented by the …, priority 2008, dated 2019).

Test system: nAChRs
Type: cell-based, rat

CN1CCCC1c1cccnc1 (stereo not shown) [nicotine, reference compound]
reversal by α-Bgt of the beneficial actions against Aβ toxicity: able to reverse the beneficial actions of nicotine
